In patent US10941382B2, “Platelet production promoter and method of producing platelets using same” (Kyoto University, priority 2016, dated 2021):

Tests used:
[1] = test system: reporter immortalized megakaryocyte cell line (MKCL#12-23 cre2); assay: VENUS fluorescence intensity of reporter immortalized megakaryocyte cell line cultured with inhibitor; assay type: cell-based, human; settings: 7th day of culture; 96-well dish; medium with 10 μM Y-27632, 50 ng/mL TPO, 50 ng/mL SCF; versus 0.1% DMSO negative control
Protocol: The platelet production-promoting effect of a Wnt inhibitor and FLT3 inhibitor was then investigated. The aforementioned reporter immortalized megakaryocyte cell line (MKCL#12-23 cre2) was cultured in a 96-well dish on a differentiation medium supplemented with the particular inhibitor at a prescribed concentration, 10 μM Y-27632, 50 ng/mL TPO, and 50 ng/mL SCF, or on a differentiation medium supplemented with 0.75 μM SR1, 10 μM Y-27632, 50 ng/mL TPO, and 50 ng/mL SCF (positive control), or on a differentiation medium supplemented with 0.1% DMSO, 10 μM Y-27632, 50 ng/mL TPO, and 50 ng/mL SCF (negative control). When the VENUS fluorescence intensity was measured on the cells on the 7th day of culture, the fluorescence intensity was increased for media to which the Wnt inhibitor or FLT3 inhibitor had been added. The results of calculation of the relative fluorescence intensity are given in FIG. 3, where the platelet count for use of the particular inhibitor was corrected with the platelet count for the positive control (made 100%) and the platelet count for the negative control (made 0%).

[2] = test system: MKCL SeV2; assay: Relative number of platelets by FACS (anti-CD41/anti-CD42b) from immortalized megakaryocyte line cultured with inhibitor; assay type: cell-based, human; settings: 7th day of cultivation; 6-well dish; medium with 10 μM Y-27632, 50 ng/mL TPO, 50 ng/mL SCF; conclusion from FIG. 3 and FIG. 4 results
Protocol: The platelet production-promoting effect of the Wnt inhibitor and FLT3 inhibitor was then investigated. MKCL SeV2, on which the aforementioned reporter immortalized megakaryocyte cell line (MKCL#12-23 cre2) was based, was cultured in a 6-well dish on a differentiation medium supplemented with the Wnt or FLT3 inhibitor, 10 μM Y-27632, 50 ng/mL TPO, and 50 ng/mL SCF, or on a differentiation medium supplemented with 0.75 μM SR1, 10 μM Y-27632, 50 ng/mL TPO, and 50 ng/mL SCF (positive control), or on a differentiation medium supplemented with 0.1% DMSO, 10 μM Y-27632, 50 ng/mL TPO, and 50 ng/mL SCF (negative control). On the 7th day of cultivation, the culture medium was suspended and the supernatant was recovered; staining with anti-CD41 antibody and anti-CD42b antibody was performed; and FACS analysis was carried out. The relative number of platelets was calculated with correction of the platelet count for use of the particular inhibitor with the platelet count for the positive control (made 100%) and the platelet count for the negative control (made 0%) (FIG. 4).

[3] = test system: iPS cells (TkDA3-4); assay: Platelet production from iPS cell-derived cells under nonuse of feeder cells, FACS (anti-CD41/anti-CD42b); assay type: cell-based; settings: 10 days of culture, 1 μM C59 or 3.3 μM FLT3 inhibitor versus 0.75 μM SR1, heparin, Y-27632, TPO, SCF
Protocol: iPS cells (TkDA3-4) were cultured and a colony was detached using a cell scraper and was cultured on a differentiation medium supplemented with […] VEGF. After 14 days, the cells were recovered using a cell scraper and 25 U/mL heparin, 10 μM Y-27632, 100 ng/mL TPO, and 50 ng/mL SCF were added. 0.1% DMSO, 0.75 μM SR1, 1 μM C59 (Calbiochem), or 3.3 μM FLT3 inhibitor (Santa Cruz Biotechnology) was also added to this culture medium and culture was carried out for 10 days. This was also carried out under the condition of the use of feeder cells as described above. The obtained cells were suspended and the supernatant was recovered; staining with anti-CD41 antibody and anti-CD42b antibody was performed; and FACS analysis was carried out (FIG. 4).

Structure (SMILES)	VENUS fluorescence intensity [1]	platelet production-promoting effect (platelet inducer) [2]	platelet production capacity compared with SR1 [3]
COc1ccc(C(=O)Nc2sc3c(c2C(N)=O)CCCC3)cc1OC [FLT3 inhibitor, 2-[(3,4-dimethoxybenzoyl)amino]-4,5,6,7-tetrahydrobenzo[b]thiophene-3-carboxamide]	increased	strong platelet inducers	same as or greater
Cc1cc(-c2ccc(CC(=O)Nc3ccc(-c4cccnc4)cc3)cc2)ccn1 [C59, 4-(2-methyl-4-pyridinyl)-N-[4-(3-pyridinyl)phenyl]benzeneacetamide]	increased	strong platelet inducers	same as or greater
